The text below walks through data of PMC5464911, “SEL120-34A is a novel CDK8 inhibitor active in AML cells with high levels of serine phosphorylation of STAT1 and STAT5 transactivation domains” (Oncotarget, 2017).

One series concerns the target CDK2/CycE1 (Homo sapiens, UniProt P24941). Nature of the series: CDK family single point inhibition assay. Type of series: biochemical. Conditions: Km ATP.
Another series has as its system MV4-11 tumors. Nature of the series: MV4-11 AML xenograft. Type of series: in vivo, SCID mice. Here is the method:
Figure 9 SEL120-34A inhibits growth of AML tumors in a dose- dependent manner (A) Volume kinetic of KG-1 tumors and (B) MV4-11 tumors grown subcutaneously in SCID mice, treated orally with vehicle (water) or indicated doses of SEL120-34A once every day. Changes in animals’ body weights are shown in the inset; n=8, SD is shown. (C) Levels of total STAT1, STAT3 and STAT5 and phosphorylated […], Y701, STAT3 S727, Y705, STAT5 726, Y694 were analyzed in KG-1 tumors from control (vehicle) and SEL120-34A treated animals at day 23. (D) Levels of total on STAT5 and phosphorylated STAT5 S726, Y694, MCL-1, PARP and Cleaved PARP, total RNAPII and phosphorylated RNAPII CTD S2 were analyzed in MV4-11 tumors from control (vehicle) and SEL120-34A treated animals at day 17.
All animals were handled in strict accordance with good animal practice as defined by the relevant national and local animal welfare bodies. Animals, SCID/beige C.B17 female mice were provided by Harlan Laboratories or Charles River Laboratories, and were maintained in pathogen free conditions.
Mice were inoculated subcutaneously (sc) above the groin on the right hind limb with 4×10^6 MV-4-11 or KG-1 leukemia cells, 5×10^6 Colo-205 CRC cells in a 0.1 ml mixture (3:1, v:v) of PBS and Matrigel (BD Biosciences, Growth Factor Reduced, Phenol Red-free; #356231). Once tumors reached a mean volume of approximately 100 mm^3 for tumor growth assessment or 250mm^3 for pharmacodynamics assessment, the mice were then randomly divided into uniform groups followed by compound or vehicle administration. Prior to use, the test compound was dissolved freshly in water at indicated doses and administered per os (PO) using cannula in a volume of 10 μl per 1 g of body weight. After the last administration, mice were subjected to anesthesia for blood collection, and sacrificed for tumor collection.

Another series has as its system EGR1 and FOS mRNA. Nature of the series: Serum-induced immediate early response gene expression in HCT-116 cells (qRT-PCR). Type of series: cell-based. Conditions: quiescent HCT-116 cells, 2 hours with 1 μM, then FBS time-course. On the procedure: (B) SEL120-34A inhibits IFN-dependent phosphorylation of STAT1 S727. HCT-116 cells stimulated with IFNg for 4 h were treated with increasing doses of SEL120-34A, Flavopiridol (F) or vehicle DMSO (C) to determine changes in the phosphorylation of STAT1 S727 and Y701, as measured by WB. (*) unspecific band. (C) SEL120-34A inhibits serine phosphorylation of STAT1 S727 and STAT5 S726, whereas Ruxolitinib inhibits tyrosine phosphorylation of STAT1 Y701 and STAT5 Y694 in JAK2 V617F cells. SET-2 cells were treated with Ruxolitinib, SEL120-34A or vehicle DMSO (C) for 24 hours and protein levels of pS727, pY701 STAT1 and pS726, pY694 STAT5 were measured by WB. […]
[…]
In general terms: Real-time PCR tracks product formation cycle by cycle.

Like-named read-outs stand apart in the source and are kept apart here.

In the case of `Cc1c(Br)c(Br)c2c3c1nc(N1CCNCC1)n3CCC2` [SEL120-34A], the remaining activity at 1 µM was 63% on CDK2/CycE1 (mean, read-out: % remaining activity @1μM CDK2/CycE1 Mean); 64% at CDK2/CycE1 (repeat 1, read-out: % remaining activity @1μM CDK2/CycE1 repeat 1); 63% at CDK2/CycE1 (repeat 2, read-out: % remaining activity @1μM CDK2/CycE1 repeat 2). The body weight entry in the series on MV4-11 tumors (MV4-11 xenograft, oral once every day) is reported as “without appreciable loss in body weight”. Moreover, the “MCL-1 in MV4-11 tumors” value in the series on MV4-11 tumors (oral once every day, day 17) was “repression”. In addition, the “STAT5 S726 and total STAT5 levels in MV4-11 tumors” value with MV4-11 tumors (oral once every day, day 17) is reported as “repressed”. Moreover, the “phosphorylation levels of RNAPII CTD S2 in MV4-11 tumors” value in the series with MV4-11 tumors (oral once every day, day 17) is “without any appreciable reduction”. In the series on MV4-11 tumors (oral, once every day), the “volume of MV4-11 tumors” value is recorded as “reduced volume”. Further, the “inducible expression of IER genes EGR1 and FOS” value in the series on EGR1 and FOS mRNA is reported as “substantially repressed”.
